Assay results taken from US20250129120A1, “PEPTIDE HAVING ACTIVITY FOR PREVENTING HAIR LOSS OR PROMOTING HAIR GROWTH, AND USE THEREOF” (CAREGEN CO., LTD., priority 2021, published 2025).

What was measured:
p-ERK = assay: Western blotting of phosphorylated ERK in HHFDPC; assay type: cell-based, human; settings: peptide 500 nM, 5 μM, and 50 µM, 24 hours, FIG. 2
Protocol: (§1) First, phosphorylated forms of AKT and ERK, which act as signaling molecules related to the proliferation of HHFDPC, were confirmed through Western blotting. Specifically, HHFDPC as in [Experiment Example 1-1] above was seeded at 4×10^5 cells/well in a 6-well culture plate, cultured in MSC complete medium (mesenchymal stem cell complete media) for 24 hours, and then the medium was replaced with serum free MSC complete medium and cultured for another 24 hours. Then, the HHFDPC was treated with the peptide of SEQ ID NO: 1 prepared in the Preparation Example at concentrations of 500 nM, 5 μM, and 50 µM, respectively, and cultured at 37° C. for 24 hours. As a positive control, minoxidil was treated at a concentration of 1 μM, and as a negative control, HHFDPC without any treatment was used. Then, Western blotting was performed to detect phosphorylated AKT and phosphorylated ERK. After washing with PBS, the cells were treated with 100 ? of lysis buffer to destroy cells, thereby obtaining cell lysate. After electrophoresis using a 10% SDS-PAGE gel, it was transferred to a PVDF membrane and blocked using 5% skim milk at room temperature for 30 minutes. […] After washing again with 0.1% PBS-T (0.1% Tween-20 in PBS) three times for 15 minutes each, p-AKT and p-ERK were detected by treatment with ECL solution (GE Healthcare, USA).

cyclin D1 = assay: RT-PCR of cyclin D1 expression in HHFDPC; assay type: cell-based, human; settings: peptide 500 nM, 5 μM, and 50 μM, 24 hours, FIG. 4
Protocol: (§2) Furthermore, in order to determine whether the β-catenin moves to the nucleus and is activated to affect proliferation and differentiation, whether the expression of LEF-1, c-Myc and cyclin D1 (cyclin D1), which act as downstream factors, increases with β-catenin activation was confirmed through RT-PCR. Specifically, in the same manner as the previous Western blotting experiment, HHFDPC cells were cultured, treated with the peptides of the Preparation Example of the present invention at concentrations of 500 nM, 5 μM, and 50 μM, respectively, and cultured at 37° C. for 24 hours. After washing the cells with PBS, RNA was isolated by treating them with 300 […] of easy blue (intron, Korea). Then, CDNA was synthesized using a cDNA synthesis kit (enzynomics, Korea) by quantifying it with nano drop, and PCR was performed using primers for LEF-1, c-Myc and cyclin D1 (base sequences of the primer are listed in Table 2 below) and PCR premix (enzynomics, Korea). Electrophoresis was performed on a 1.5% agarose gel, and then the mRNA of LEF-1, c-Myc and cyclin D1 was detected using a band analysis system (Bio-Rad gel image system).

[1] = system: HHFDPC (human hair follicle dermal papilla cells); assay: MTT proliferation assay in dermal papilla cells; assay type: cell-based; settings: peptide 500 nM, 5 μM, and 50 μM, 72 hours, vs untreated control, FIG. 1
Protocol: While culturing human hair follicle dermal dermal papilla cells (HHFDPC), the absorbance was measured after treatment with the peptide of the present invention to confirm whether there was an effect of promoting the proliferation of the HHFDPC dermal papilla cells.
Specifically, HHFDPC (Sciencell, USA) was seeded at 4×10^3 cells/well in a 96-well culture plate, cultured in MSC complete medium (mesenchymal stem cell complete media, Sciencell, USA) for 24 hours, and then the medium was replaced with serum free MSC complete medium and cultured for another 24 hours. Then, the HHFDPC was treated with the peptide of SEQ ID NO: 1 prepared in the Preparation Example at concentrations of 500 nM, 5 μM, and 50 μM, respectively, and cultured at 37° C. for 72 hours. As a positive control, minoxidil was treated at a concentration of 1 μM, and as a negative control, HHFDPC without any treatment was used. Then, 10 ? of 5 mg/mL MTT solution was added and cultured in a 37° C. CO2 incubator for 4 hours to stain the cells. After removing the medium, the cells were treated with 100 μl of DMSO and shaken for 10 minutes, and the number of HHFDPC cells was confirmed by measuring absorbance at a wavelength of 540 nm using a spectrophotometer.

LEF-1 = assay: RT-PCR of LEF-1 expression in HHFDPC; assay type: cell-based, human; settings: peptide 500 nM, 5 μM, and 50 μM, 24 hours, FIG. 4
Protocol: as §2

Keratin 19 = assay: RT-PCR of Keratin 19 expression in HHORSC; assay type: cell-based, human; settings: peptide 500 nM, and 50 μM, 72 hours, FIG. 6
Protocol: (§3) Specifically, HHORSC (human hair outer root sheath cell, Sciencell, USA) was seeded in a 6-well culture plate at 4×10^5 cells/well and then cultured in MSC complete medium (mesenchymal stem cell complete media) for 24 hours. Next, the medium was replaced with serum free MSC complete medium and cultured again for 24 hours. Then, the HHORSC was treated with the peptide of SEQ ID NO: 1 prepared in the Preparation Example at concentrations of 500 nM, […], and 50 μM, respectively, and cultured at 37° C. for 72 hours. As a positive control, EGF was treated at a concentration of 50 nM, and as a negative control, HHORSC without any treatment was used. After washing with PBS, RNA was isolated by treating with 300 ? of easy blue (intron, Korea). Then, cDNA was synthesized using a cDNA synthesis kit (enzynomics, Korea) by quantification using nano drop, and PCR was performed using primers for Ha3-II, Keratin 14, and Keratin 19 (the base sequences of primer are shown in Table 3 below) and PCR premix (enzynomics, Korea). Electrophoresis was performed on a 1.5% agarose gel, and the mRNAs of Ha3-II, Keratin 14, and Keratin 19 were detected using a band analysis system (Bio-Rad gel image system).

p-AKT = assay: Western blotting of phosphorylated AKT in HHFDPC; assay type: cell-based, human; settings: peptide 500 nM, 5 μM, and 50 µM, 24 hours, FIG. 2
Protocol: as §1

Keratin 14 = assay: RT-PCR of Keratin 14 expression in HHORSC; assay type: cell-based, human; settings: peptide 500 nM, and 50 μM, 72 hours, FIG. 6
Protocol: as §3

β-catenin = assay: Western blotting of β-catenin moved to the nucleus in HHFDPC; assay type: cell-based, human; settings: HHFDPC nuclear protein, peptide 500 nM, 5 μM, and 50 μM, 24 hours, FIG. 3
Protocol: In addition, in addition to p-AKT and p-ERK, in order to confirm the activation of β-catenin, which is known to affect cell proliferation and differentiation, whether β-catenin moved into the nucleus was confirmed through Western blotting. Specifically, the HHFDPC as in [Experiment Example 1-1] was seeded in a 6-well culture plate at an amount of 4×10^5 cells/well, cultured in MSC complete medium (mesenchymal stem cell complete media) for 24 hours. Next, the medium was replaced with serum free MSC complete medium and cultured again for 24 hours. Then, the HHFDPC was treated with the peptide of SEQ ID NO: 1 prepared in the Preparation Example at concentrations of 500 nM, 5 μM, and 50 μM, respectively, and cultured at 37° C. for 24 hours. As a positive control, minoxidil was treated at a concentration of 1 μM, and as a negative control, HHFDPC without any treatment was used. After washing with PBS, proteins in the nucleus were isolated using a nuclear protein extraction kit (Thermo scientific, USA). After electrophoresis using a 10% SDS-PAGE gel, it was transferred to a PVDF membrane and blocked using 5% skim milk at room temperature for 30 minutes. […] After washing again with 0.1% PBS-T (0.1% Tween-20 in PBS) three times for 15 minutes each, β-catenin was detected by treatment with ECL solution (GE Healthcare, USA).

Ha3-II = assay: RT-PCR of Ha3-II expression in HHORSC; assay type: cell-based, human; settings: peptide 500 nM, 5 µM, and 50 μM, 72 hours, FIG. 6
Protocol: as §3

[2] = system: DKK-1 protein (dickkopf-related protein 1); assay: Western blotting of DKK-1 protein in DHT-treated HHFDPC; assay type: cell-based, human; settings: HHFDPC with DHT 100 nM; peptide 500 nM, 5 μM, and 50 μM; 24 hours; vs negative control (DHT only); FIG. 5
Protocol: DKK-1 protein (dickkopf-related protein 1) is a hair loss-related protein known to be highly expressed in individuals with hair loss, especially male pattern hair loss, and its expression is known to be promoted by hormones such as DHT (Dihydrotestosterone). Accordingly, the expression of DKK-1 protein was induced by treating HHFDPC cells with DHT together with the peptide according to the Preparation Example of the present invention, and then the expression level of DKK-1 was measured through Western blotting to determine whether there was an effect of suppressing the expression of DKK-1 protein.
Specifically, HHFDPC as in [Experiment Example 1-1] was seeded in a 6-well culture plate at 4×10^5 cells/well and then cultured in MSC complete medium (mesenchymal stem cell complete media) for 24 hours. Next, the medium was replaced with serum free MSC complete medium and cultured again for 24 hours. In addition, the HHFDPC was treated with the peptide of SEQ ID NO: 1 prepared in Preparation Example at concentrations of 500 nM, 5 μM, and 50 μM, respectively, and at this time, DHT, an expression inducer of DKK-1 protein, was simultaneously treated at a concentration of 100 nM and then cultured at 37° C. for 24 hours. […] After washing again with 0.1% PBS-T (0.1% Tween-20 in PBS) three times for 15 minutes each, DKK-1 protein was detected by treatment with ECL solution (GE Healthcare, USA).

c-Myc = assay: RT-PCR of c-Myc expression in HHFDPC; assay type: cell-based, human; settings: peptide 500 nM, 5 μM, and 50 μM, 24 hours, FIG. 4
Protocol: as §2

MSX2 = assay: RT-PCR of MSX2 expression in HHGMC; assay type: cell-based, human; settings: peptide 500 nM, 5 μM, and 50 μM, 72 hours, FIG. 7
Protocol: Specifically, HHGMC (human hair germinal matrix cell, Sciencell, USA) was seeded in a 6-well culture plate at 4×10^5 cells/well and then cultured in MSC complete medium (mesenchymal stem cell complete media) for 24 hours. Next, the medium was replaced with serum free MSC complete medium and cultured again for 24 hours. Then, the HHGMC was treated with the peptide of SEQ ID NO: 1 prepared in the Preparation Example at concentrations of 500 nM, 5 μM, and 50 μM, respectively, and cultured at 37° C. for 72 hours. As a positive control, EGF was treated at a concentration of 50 nM, and as a negative control, HHGMC without any treatment was used. After washing with PBS, RNA was isolated by treating with 300 ? of easy blue (intron, Korea). Next, cDNA was synthesized using a cDNA synthesis kit (enzynomics, Korea) by quantification using nano drop, and PCR was performed using primers for MSX2 (base sequences of the primer are listed in Table 4 below) and PCR premix (enzynomics, Korea). Electrophoresis was performed on a 1.5% agarose gel, and MSX2 mRNA was detected using a band analysis system (Bio-Rad gel image system).

GGVPG [peptide of the present invention]
phosphorylation of ERK (p-ERK) (p-ERK): increased compared to the control group not treated with the peptide | amount of cyclin D1 mRNA (cyclin D1): increased further compared to the control group without any treatment | proliferation of HHFDPC (absorbance at 540 nm, MTT) [1]: promoted depending on the concentration of the treated peptide | amount of LEF-1 mRNA (LEF-1): increased further compared to the control group without any treatment | amount of Keratin 19 mRNA (Keratin 19): increased further compared to the control group that did not receive any treatment | phosphorylation of AKT (p-AKT) (p-AKT): increased compared to the control group not treated with the peptide | amount of Keratin 14 mRNA (Keratin 14): increased further compared to the control group that did not receive any treatment | migration of β-catenin to the nucleus (activation of β-catenin) (β-catenin): migration due to activation of β-catenin increased | amount of Ha3-II mRNA (Ha3-II): increased further compared to the control group that did not receive any treatment | amount of DKK-1 protein [2]: reduced | amount of c-Myc mRNA (c-Myc): increased further compared to the control group without any treatment | amount of MSX2 mRNA (MSX2): increased further compared to the untreated control group
